In patent publication US20220233512A1, “INHIBITING AN IMMUNE RESPONSE MEDIATED BY ONE OR MORE OF TLR2, RAGE, CCR5, CXCR4 AND CD4” (priority 2020, published 2022):

Molecular target: T1, mu opiate receptor (MOR) (Rattus norvegicus, UniProt P33535)
T1 construct: from tissue; host or cells: striatum (membrane preparation)
Test: MOR agonist activity using [35S]GTPgS binding assay in striatal membranes
Assay type: biochemical
Parameters: MOR agonist activity (preliminary study): unit of the concentration uncertain
Settings: for MOR agonist activity (preliminary study): average of two runs
Experimental: To assess the mu opiate receptor (MOR) agonist activity of positive compounds from the FLNA screening, compounds were tested in a [^35S]GTPgS binding assay using striatal membranes. […] This assay measures a functional consequence of receptor occupancy at one of the earliest receptor-mediated events. The assay permits for traditional pharmacological parameters of potency, efficacy and antagonist affinity, with the advantage that agonist measures are not subjected to amplification or other modulation that may occur when analyzing parameters further downstream of the receptor.
Thus, striatal tissue was homogenized in 10 volumes of ice cold 25 mM HEPES buffer, pH 7.4, which contained 1 mM EGTA, 100 mM sucrose, 50 mg/ml leupeptin, 0.04 mM PMSF, 2 mg/ml soybean trypsin inhibitor and 0.2% 2-mercaptoethanol. The homogenates were centrifuged at 800×g for 5 minutes and the supernatants were centrifuged at 49,000×g for 20 minutes. The resulting pellets were suspended in 10 volume of reaction buffer, which contained 25 mM HEPES, pH 7.5, 100 mM NaCl, 50 mg/ml leupeptin, 2 mg/ml soybean trypsin inhibitor, 0.04 mM PMSF and 0.02% […].
The resultant striatal membrane preparation (200 mg) was admixed and maintained (incubated) at 30° C. for 5 minutes in reaction buffer as above that additionally contained 1 mM MgCl2 and 0.5 nM [^35S]GTPgS (0.1 mCi/assay, PerkinElmer Life and Analytical Sciences) in a total volume of 250 ml and continued for 5 minutes in the absence or presence of 0.1-10 mM of an assayed compound of interest. The reaction was terminated by dilution with 750 ml of ice-cold reaction buffer that contained 20 mM MgCl2 and 1 mM EGTA and immediate centrifugation at 16,000×g for 5 minutes.
The resulting pellet was solubilized by sonicating for 10 seconds in 0.5 ml of immunoprecipitation buffer containing 0.5% digitonin, 0.2% sodium cholate and 0.5% NP-40. Normal rabbit serum (1 ml) was added to 1 ml of lysate and incubated at 25° C. for 30 minutes. Nonspecific immune complexes were removed by incubation with 25 ml of protein A/G-conjugated agarose beads at 25° C. for 30 minutes followed by centrifugation at 5,000×g at 4° C. for 5 minutes. The supernatant was divided and separately incubated at 25° C. for 30 minutes with antibodies raised against Gao proteins (1:1,000 dilutions).
The immunocomplexes so formed were collected by incubation at 25° C. for 30 minutes with 40 ml of agarose-conjugated protein A/G beads and centrifugation at 5,000×g at 4° C. for 5 minutes. The pellet was washed and suspended in buffer containing 50 mM Tris-HCl, pH 8.0, and 1% NP-40. The radioactivity in the suspension was determined by liquid scintillation spectrometry. […] DAMGO (1 or 10 mM) was used as a positive control.

[1] = 0.1 μM compound as agonist, Series C-1 table
[2] = 1 μM compound as agonist, Series C-1 table
[3] = 0.1 μM compound as agonist, Series C-2 table
[4] = 1 μM compound as agonist, Series C-2 table
[5] = 0.1 (unit uncertain) compound as agonist
[6] = 1 (unit uncertain) compound as agonist

T1 sequence (P33535 whole entry): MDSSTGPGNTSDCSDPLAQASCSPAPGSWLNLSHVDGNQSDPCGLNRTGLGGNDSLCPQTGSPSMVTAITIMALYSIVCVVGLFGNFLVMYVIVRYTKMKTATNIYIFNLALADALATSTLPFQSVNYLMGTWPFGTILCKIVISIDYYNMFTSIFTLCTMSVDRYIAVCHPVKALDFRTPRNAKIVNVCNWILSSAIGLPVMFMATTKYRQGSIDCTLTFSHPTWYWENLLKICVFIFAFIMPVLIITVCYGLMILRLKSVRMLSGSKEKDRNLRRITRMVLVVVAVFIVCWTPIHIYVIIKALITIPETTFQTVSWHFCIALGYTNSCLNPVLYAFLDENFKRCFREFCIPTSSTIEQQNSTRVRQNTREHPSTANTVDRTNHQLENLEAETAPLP

Row | SMILES | MOR agonist activity ([35S]GTPgS binding to Gao) [1] [%] | MOR agonist activity ([35S]GTPgS binding to Gao) (1 μM + BFNA, Series C-1 table) [%] | MOR agonist activity ([35S]GTPgS binding to Gao) [2] [%] | MOR agonist activity ([35S]GTPgS binding to Gao) [3] [%] | MOR agonist activity ([35S]GTPgS binding to Gao) (1 μM + BFNA, Series C-2 table) [%] | MOR agonist activity ([35S]GTPgS binding to Gao) [4] [%] | MOR agonist activity (preliminary study) (1 mM + bNFA) [%] | MOR agonist activity (preliminary study) [5] [%] | MOR agonist activity (preliminary study) [6] [%]
1 | O=C(O)c1ccc(C(=O)N2CCC3(CC2)OCCN3S(=O)(=O)c2ccc(C(=O)O)cc2)cc1 [Compound C0021] | 159.7 | 90.7 | 192.0 |  |  |  |  |  | 
2 | COc1ccc(NC(=O)N2CCC3(CC2)OCCN3S(=O)(=O)c2ccc(OC)cc2)cc1 [Compound C0041] | 186.1 | 95.5 | 244.4 |  |  |  |  |  | 
3 | CCN1CCC2(CC1)OCCN2S(=O)(=O)c1ccc(OC)cc1 [Compound C0089M] |  |  |  | 234.5 | 81.9 | 295.3 |  |  | 
4 | O=S(=O)(c1ccc(OC(F)(F)F)cc1)N1CCOC12CCN(CC1CC1)CC2 [Compound 4] |  |  |  |  |  |  | 49.5 | 133.9 | 165.2
5 | CC(=O)c1ccc(C(=O)N2CCC3(CC2)OCCN3C(=O)c2ccc(C(C)=O)cc2)cc1 [Compound C0054] | 68.2 | 43.5 | 127.0 |  |  |  |  |  | 
6 | COc1ccc(S(=O)(=O)N2CCC3(CC2)NCCC(=O)N3)cc1 [Compound C0142M] |  |  |  | 143.7 | 98.7 | 192.5 |  |  | 
7 | CC(=O)c1ccc(S(=O)(=O)N2CCC3(CC2)OC(CN(C)C)CN3S(=O)(=O)c2ccc(C(C)=O)cc2)cc1 (stereo not drawn) [Compound C0065] | 198.3 | 47.7 | 279.5 |  |  |  |  |  | 
8 | Cc1ccc(S(=O)(=O)N2CCOC23CCN(CC2CCC2)CC3)cc1 [Compound 9] |  |  |  |  |  |  | 56.6 | 156.6 | 197.2
9 | O=C1CN(Cc2ccccc2)C2(CCN(CC3CC3)CC2)N1 [Compound C0125M] |  |  |  | 168.6 | 159.7 | 195.2 |  |  | 
10 | O=S(=O)(c1cccc(OC(F)(F)F)c1)N1CCC2(CC1)OCCN2S(=O)(=O)c1cccc(OC(F)(F)F)c1 [Compound C0005] | 180.4 | 166.4 | 227.2 |  |  |  |  |  | 
11 | N#Cc1ccc(S(=O)(=O)N2CCC3(CC2)OCCN3S(=O)(=O)c2ccc(C#N)cc2)cc1 [Compound C0008] | 71.2 | 2.8 | 201.6 |  |  |  |  |  | 
12 | O=S(=O)(c1ccccc1)N1CCC2(CC1)OCCN2S(=O)(=O)c1ccccc1 [Compound C0016] | 172.7 | 96.7 | 230.5 |  |  |  |  |  | 
13 | Cc1ccc(S(=O)(=O)N2CCOC23CCN(CC2CC2)CC3)cc1 [Compound C0134M] |  |  |  | 158.5 | 46.6 | 207.3 | 53.2 | 150.7 | 224.0
14 | Cc1ccc(S(=O)(=O)N2CCC3(CC2)OCCN3S(=O)(=O)c2ccc(C)cc2)cc1 [Compound C0001] | 129.3 | 33.9 | 184.3 |  |  |  |  |  | 
15 | C[C@@H](NC(=O)[C@@H](N)Cc1ccc(O)cc1)C(=O)NCC(=O)N(C)[C@@H](Cc1ccccc1)C(=O)NCCO [DAMGO, [D-Ala2, N-MePhe4, Gly-ol]-enkephalin, reference compound] | 168.5 | 53.2 | 266.1 | 168.5 | 53.2 | 266.1 | 56.8 | 144.7 | 233.4
16 | COc1ccc(S(=O)(=O)N2CCOC23CCNCC3)cc1 [Compound C0027] |  |  |  | 233.2 | 72.2 | 313.9 |  |  | 
17 | O=C1CN(Cc2ccccc2)C2(CCN(S(=O)(=O)c3cc(Cl)cc(Cl)c3O)CC2)N1 [Compound C0138M] | 126.9 | 51.5 | 183.9 |  |  |  |  |  | 
18 | CC(=O)c1ccc(S(=O)(=O)N2CCC3(CC2)OCCN3S(=O)(=O)c2ccc(C(C)=O)cc2)cc1 [Compound C0011] | 217.0 | 19.0 | 305.0 | 217.0 | 19.0 | 305.0 |  |  | 
19 | COc1ccc(NC(=O)N2CCC3(CC2)OCCN3C(=O)Nc2ccc(OC)cc2)cc1 [Compound C0151M] | 346.8 | 212.8 | 397.6 |  |  |  |  |  | 
20 | C=CCN1CCC2(CC1)OCCN2S(=O)(=O)c1ccc(C(C)=O)cc1 [Compound C0096M] |  |  |  | 186.4 | 127.1 | 328.9 |  |  | 
21 | O=S(=O)(c1ccc(Br)c(C(F)(F)F)c1)N1CCC2(CC1)OCCN2S(=O)(=O)c1ccc(Br)c(C(F)(F)F)c1 [Compound C0077] | 192.7 | 136.7 | 265.4 |  |  |  |  |  | 
22 | CC(=O)c1ccc(S(=O)(=O)N2CCC3(CC2)OCC(CCCCN(C)C)N3S(=O)(=O)c2ccc(C(C)=O)cc2)cc1 (stereo not drawn) [Compound C0080] | 187.9 | 167.1 | 205.4 |  |  |  |  |  | 
23 | O=C(c1ccc([N+](=O)[O-])cc1)N1CCC2(CC1)OCCN2C(=O)c1ccc([N+](=O)[O-])cc1 [Compound C0032] | 145.4 | 80.9 | 202.0 |  |  |  |  |  | 
24 | CN1CCC2(CC1)NC(=O)CN2Cc1ccccc1 [Compound C0104M] |  |  |  | 188.2 | 143.8 | 238.9 |  |  | 
25 | COc1ccc(S(=O)(=O)N2CCOC23CCN(CC2CC2)CC3)cc1 [Compound C0090M] |  |  |  | 237.0 | 41.0 | 341.0 |  |  | 
26 | COc1ccc(S(=O)(=O)N2CCOC23CCN(S(=O)(=O)c2ccc(C(C)=O)cc2)CC3)cc1 [Compound C0047] | 142.2 | 80.1 | 206.1 |  |  |  |  |  | 
27 | C=CCN1CCC2(CC1)OCCN2S(=O)(=O)c1ccc(OC)cc1 [Compound C0091M] |  |  |  | 207.9 | 80.8 | 274.4 |  |  | 
28 | O=S(=O)(c1ccc(F)c(F)c1)N1CCC2(CC1)OCCN2S(=O)(=O)c1ccc(F)c(F)c1 [Compound C0072] | 172.7 | 67.1 | 259.1 |  |  |  |  |  | 
29 | CC(=O)c1ccc(S(=O)(=O)N2CCC3(CC2)NCCS3)cc1 [Compound C0060] |  |  |  | 166.5 | 143.9 | 218.9 |  |  | 
